These results are taken from PMC6678630 (International Journal of Molecular Sciences, 2019).

Assay [1] deals with T1, human glucagon receptor (GCGR) (Homo sapiens, UniProt P47871).
T1 construct: expressed in transfected cells; host or cells: HEK-293 (transient, with Cre-luc reporter)
As to the kind of experiment: CRE-Luc cAMP-responsive luciferase reporter assay, glucagon receptor. It is filed as cell-based. How it is done:
(§1) The start codon of SYFP2 was replaced by PCR with an XbaI site, and a NotI site was inserted behind the stop codon of SYFP2. The resulting fusion of receptor-SYFP2 was cloned in pcDNA3.
(§2) HEK-293 and Flip-In HEK-293 cells (Invitrogen) were cultured in Dulbecco’s modified Eagle’s media supplemented with 10% foetal calf serum, 100 U/mL penicillin and 100 µg/mL streptomycin. Cells were maintained at 37 °C in a humidified environment containing 5% CO2. HEK-293 cells were transiently transfected using Effectene (Qiagen, Hilden, Germany), following the manufacturer’s protocol. In order to generate stable cell lines Flip-In HEK-293 cells were transfected with the pcDNA5.FRT vector and pOG44 using Effectene. Stable isogenic clones were selected by the addition of hygromycin (100 µg/mL).
(§3) Twenty-four hours after transfection, the cells were seeded into white 96-well plates (Thermo Scientific, Roskilde, Denmark). Twenty-four hours later, the cells were incubated for 3 h in medium containing peptide ligand and then lysed. Luciferase activity was quantified using LucLite reagent (PerkinElmer Life and Analytic Sciences, Wellesley, MA, USA).
(§4) Dose-response curves represent the mean ± S.E.M from at least three independent experiments, each performed in triplicates. […] The dose-response data were fitted to a sigmoidal curve using nonlinear regression, and the EC50 values calculated with the aid of GraphPad 8.0 (GraphPad Dan Diego, CA, USA). The values in Table 1 represent the mean ± S.E.M calculated from the pEC50 (−logEC50) values from at least three independent experiments. Statistical analysis of significance was calculated with GraphPad 8.0 using a two˗tailed, unpaired Student’s t-test.
(Reporter assays use an easily measured gene product as a stand-in for the process of interest.)

In a further assay the target is T2, human GIPR (Homo sapiens, UniProt P48546).
T2 construct: expressed in transfected cells; host or cells: HEK-293 (transient, with Cre-luc reporter)
T2 sequence (P48546 22-466): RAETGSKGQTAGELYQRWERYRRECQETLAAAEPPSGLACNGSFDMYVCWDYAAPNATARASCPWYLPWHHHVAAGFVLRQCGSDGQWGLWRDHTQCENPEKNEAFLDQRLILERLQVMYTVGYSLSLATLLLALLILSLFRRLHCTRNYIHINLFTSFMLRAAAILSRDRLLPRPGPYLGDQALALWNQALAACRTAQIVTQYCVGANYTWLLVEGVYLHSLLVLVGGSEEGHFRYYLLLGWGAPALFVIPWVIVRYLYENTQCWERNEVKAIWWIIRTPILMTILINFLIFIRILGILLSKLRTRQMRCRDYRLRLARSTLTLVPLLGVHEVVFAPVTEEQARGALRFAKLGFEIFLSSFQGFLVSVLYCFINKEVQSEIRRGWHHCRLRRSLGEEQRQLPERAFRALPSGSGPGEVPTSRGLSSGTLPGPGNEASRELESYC
As to the kind of experiment: CRE-Luc cAMP-responsive luciferase reporter assay, GIP receptor. It is filed as cell-based. How it is done:
as §1, §2, §3, §4

The next assay has as its target T3, human GLP-1R (Homo sapiens, UniProt P43220).
T3 construct: expressed in transfected cells; host or cells: HEK-293 (transient, with Cre-luc reporter)
The experiment in a line: CRE-Luc cAMP-responsive luciferase reporter assay, GLP-1 receptor. The format is cell-based. How it is done:
as §1
HEK-293 and Flip-In HEK-293 cells (Invitrogen) were cultured in Dulbecco’s modified Eagle’s media supplemented with 10% foetal calf serum, 100 U/mL penicillin and 100 µg/mL streptomycin. Cells were maintained at 37 °C in a humidified environment containing 5% CO2. HEK-293 cells were transiently transfected using Effectene (Qiagen, Hilden, Germany), following the manufacturer’s protocol. […]
Twenty-four hours after transfection, the cells were seeded into white 96-well plates (Thermo Scientific, Roskilde, Denmark). […] Luciferase activity was quantified using LucLite reagent (PerkinElmer Life and Analytic Sciences, Wellesley, MA, USA).
as §4

The target in assay [2] is T4, human GLP-1R (GLP-1R-Nluc) (Homo sapiens, UniProt P43220).
T4 construct: expressed in transfected cells; host or cells: Flp-In HEK-293 stably expressing GLP-1R-NLuc (pcDNA5-FRT); NES-Venus-Gαs transient
T4 sequence (P43220 24-463): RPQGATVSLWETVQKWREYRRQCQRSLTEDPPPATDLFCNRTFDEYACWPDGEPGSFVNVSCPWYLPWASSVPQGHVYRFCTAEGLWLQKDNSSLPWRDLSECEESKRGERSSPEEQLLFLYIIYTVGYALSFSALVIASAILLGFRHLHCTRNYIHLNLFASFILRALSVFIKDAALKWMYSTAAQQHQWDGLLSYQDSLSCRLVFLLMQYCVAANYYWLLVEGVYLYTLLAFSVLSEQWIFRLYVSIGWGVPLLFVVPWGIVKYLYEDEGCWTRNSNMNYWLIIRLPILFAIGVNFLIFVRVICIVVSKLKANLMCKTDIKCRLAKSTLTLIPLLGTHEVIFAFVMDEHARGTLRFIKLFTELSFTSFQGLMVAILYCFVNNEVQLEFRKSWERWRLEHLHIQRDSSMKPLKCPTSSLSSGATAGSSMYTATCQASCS
As to the kind of experiment: BRET Gαs recruitment to GLP-1 receptor. As to conditions: Gαs BRET (NES-Venus-Gαs), Flip-In HEK-293 cells stably expressing GLP-1R-Nluc, 15 min agonist; mean ± S.E.M., 4 independent experiments. The format is cell-based. On the procedure: as §2, §4
For orientation: Bioluminescence resonance energy transfer reports proximity on the nanometre scale.

The subject of a further assay is GIPR. The conditions noted are these: cited from earlier work. An excerpt:
(§5) Several GLP-1R agonists (e.g., exenatide, liraglutide, and semaglutide) are currently used clinically to treat both T2DM and obesity. While they reduce mortality, improve glycemic control, reduce body weight and improve cardiovascular risk factors, the use of higher doses is often limited by adverse effects such as nausea and vomiting. There is therefore the potential to improve upon the current class of GLP-1R agonists. Targeting GIPR to treat T2DM and obesity has a somewhat contradictory history. Unlike GLP-1, pharmacological doses of exogenous GIP were not found to be ins ...

A further assay concerns rodent models. As to conditions: ref [26],[27]; cited from earlier work.
Description: as §5

pEC50: −log10 of the molar value.

Usually pEC50 stands for the EC50 on a negative log10 scale, so that one unit is a factor of ten. Low values mean a high EC50, high ones a low EC50.

T1 sequence (P47871 26-477): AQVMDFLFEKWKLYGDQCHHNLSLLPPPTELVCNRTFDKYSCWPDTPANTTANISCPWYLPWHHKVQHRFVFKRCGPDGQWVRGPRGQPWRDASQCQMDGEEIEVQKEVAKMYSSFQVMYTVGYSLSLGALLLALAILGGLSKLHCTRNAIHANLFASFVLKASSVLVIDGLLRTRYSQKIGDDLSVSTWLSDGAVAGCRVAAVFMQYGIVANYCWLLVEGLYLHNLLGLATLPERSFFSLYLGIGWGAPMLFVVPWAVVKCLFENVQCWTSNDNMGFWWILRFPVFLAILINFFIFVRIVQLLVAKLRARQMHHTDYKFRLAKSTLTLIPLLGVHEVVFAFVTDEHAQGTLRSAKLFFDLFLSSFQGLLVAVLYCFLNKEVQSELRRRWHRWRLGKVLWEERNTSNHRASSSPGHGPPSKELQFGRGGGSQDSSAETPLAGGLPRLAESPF
T3 sequence (P43220 24-463): as the sequence (P43220 24-463) above

As for `CC[C@H](C)[C@H](NC(=O)[C@H](Cc1ccccc1)NC(=O)[C@H](CCC(=O)O)NC(=O)[C@H](CCCCN)NC(=O)[C@H](C)NC(=O)[C@H](C)NC(=O)[C@H](CCC(N)=O)NC(=O)CNC(=O)[C@H](CCC(=O)O)NC(=O)[C@H](CC(C)C)NC(=O)[C@H](Cc1ccc(O)cc1)NC(=O)[C@H](CO)NC(=O)[C@H](CO)NC(=O)[C@@H](NC(=O)[C@H](CC(=O)O)NC(=O)[C@H](CO)NC(=O)[C@@H](NC(=O)[C@H](Cc1ccccc1)NC(=O)[C@@H](NC(=O)CNC(=O)[C@H](CCC(=O)O)NC(=O)[C@H](C)NC(=O)[C@@H](N)Cc1c[nH]cn1)[C@@H](C)O)[C@@H](C)O)C(C)C)C(=O)N[C@@H](C)C(=O)N[C@@H](Cc1c[nH]c2ccccc12)C(=O)N[C@@H](CC(C)C)C(=O)N[C@H](C(=O)N[C@@H](CCCCN)C(=O)NCC(=O)N[C@@H](CCCNC(=N)N)C(=O)NCC(=O)O)C(C)C` [GLP-1, Glucagon-like peptide-1], the “activity at glucagon receptor, in words” value in assay [1] (CRE-Luc, HEK-293 cells, concentrations up to 1 µM) is reported as “could not be detected”. The “activity at GIP receptor, in words” value on human GIPR (CRE-Luc, HEK-293 cells) is recorded as “Neither glucagon nor GLP-1 displayed any detectable activity”.

As for `CC[C@H](C)[C@H](NC(=O)[C@H](CO)NC(=O)[C@H](Cc1ccc(O)cc1)NC(=O)[C@H](CC(=O)O)NC(=O)[C@H](CO)NC(=O)[C@@H](NC(=O)[C@H](Cc1ccccc1)NC(=O)[C@@H](NC(=O)CNC(=O)[C@H](CCC(=O)O)NC(=O)C(C)(C)NC(=O)[C@@H](N)Cc1ccc(O)cc1)[C@@H](C)O)[C@@H](C)O)C(=O)N[C@@H](Cc1ccc(O)cc1)C(=O)N[C@@H](CC(C)C)C(=O)N[C@@H](CC(=O)O)C(=O)N[C@@H](CCCCN)C(=O)N[C@@H](CCC(N)=O)C(=O)N[C@@H](C)C(=O)N[C@@H](C)C(=O)NC(C)(C)C(=O)N[C@@H](CCC(=O)O)C(=O)N[C@@H](Cc1ccccc1)C(=O)N[C@H](C(=O)N[C@@H](CC(N)=O)C(=O)N[C@@H](Cc1c[nH]c2ccccc12)C(=O)N[C@@H](CC(C)C)C(=O)N[C@@H](CC(C)C)C(=O)N[C@@H](C)C(=O)NCC(=O)NCC(=O)N1CCC[C@H]1C(=O)N[C@@H](CO)C(=O)N[C@@H](CO)C(=O)NCC(=O)N[C@@H](C)C(=O)N1CCC[C@H]1C(=O)N1CCC[C@H]1C(=O)N1CCC[C@H]1C(=O)N[C@@H](CO)C(=O)N[C@@H](CCCCN)C(N)=O)C(C)C` [P18], the pEC50 is 4.90 in assay [1], 9.70 on human GLP-1R and 7.40 in assay [2]. The “Emax (% Glucagon), Glucagon Receptor” value in assay [1] (maximum luciferase activity as a percentage of glucagon, HEK-293 cells, 3 h incubation, mean ± S.E.M., at least 3 independent experiments, ND = no detectable activity at 1 µM, P18 p < 0.0001 vs glucagon) came out at 22.6 ± 1.96 d % Glucagon. Besides, the “Emax (% GLP-1), GLP-1 Receptor” value at human GLP-1R (maximum luciferase activity as a percentage of GLP-1, HEK-293 cells, 3 h incubation, mean ± S.E.M., at least 3 independent experiments, ND = no detectable activity at 1 µM, glucagon p < 0.01 vs GLP-1) is recorded as 106 ± 10.7 % GLP-1. For the same compound, the “Emax (% GIP), GIP Receptor” value at human GIPR (maximum luciferase activity as a percentage of GIP, HEK-293 cells, 3 h incubation, mean ± S.E.M., at least 3 independent experiments, ND = no detectable activity at 1 µM) is recorded as 94.4 ± 4.09 % GIP. The EC50 at human GIPR (−logEC50/M, CRE-Luc in transiently transfected HEK-293 cells, 3 h incubation, mean ± S.E.M., at least 3 independent experiments in triplicate, ND = no detectable activity at 1 µM, P18 p < 0.05 vs GIP, read-out: pEC50, GIP Receptor (converted)) is 15.8 nM.

Consider “Pro3GIP: derivative of GIP with a glutamic acid to proline substitution at position three (YAPGTFISDYSIAMDKIHQQDFVNWLLAQKGKKNDWKHNITQ; Gastric inhibitory polypeptide; UniProt P09681 52-93, looked up, variant E3P)”, for which the “initially reported activity at GIPR, in words” value in the assay on GIPR (initial report, later contradicted, ref [26],[27]) is given as “GIPR antagonist”. For the same compound, in the assay with GIPR (ref [28],[29]), the “activity at GIPR, in words” value is given as “low potency GIPR agonist”. Moreover, the “protection against diabetes and obesity” value with rodent models was “protective against diabetes and obesity in rodent models”.
